Numbers after ± are expanded uncertainties.
Assay: activity coefficient (dimensionless); of the first substance listed, at infinite dilution; xn = mol fraction of the nth substance listed
Settings: Liquid, x1 = 0

| SMILES | activity coefficient (297 K) | activity coefficient (307 K) | activity coefficient (316 K) | activity coefficient (325 K) | activity coefficient (335 K) | activity coefficient (344 K) |
| --- | --- | --- | --- | --- | --- | --- |
| CCCCCCCCC [nonane] + CCCC[n+]1ccc(C)cc1.F[B-](F)(F)F | 309 ± 59 | 275 ± 52 | 241 ± 46 | 229 ± 43 | 201 ± 38 | 201 ± 38 |
| CCCCCCCC [octane] + CCCC[n+]1ccc(C)cc1.F[B-](F)(F)F | 182 ± 34 | 170 ± 32 | 158 ± 30 | 142 ± 27 | 124 ± 23 | 119 ± 22 |
| CCCCCCCCCC [decane] + CCCC[n+]1ccc(C)cc1.F[B-](F)(F)F | 491 ± 94 | 430 ± 82 | 389 ± 74 | 359 ± 68 | 320 ± 61 | 283 ± 54 |
